Reference: patent US6841535B2, “Peptide-mediated transfection agents and methods of use” (Active Motif, priority 2000, dated 2005)
*1 amine or outer side, *2 acyl side, *3 side chain or, on linkers, in order; H or OH if unused. Where a SMILES comes first, the peptide text is derived from it. Where no end group is shown, it is not given here. Cysteamide = C(CS[*:3])N[*:1]

Assays:
cardiac cell line H9C2 = test: Nuclear labeling of cells by fluorescein ODN-peptide conjugate; format: cell-based
Description: (§1) For the second ODN, the situation is clearer. This ODN conjugated 3′ with fluorescein and containing an SH group in 5′ for localization reasons has the sequence 5′-[…]-3′ (SEQ ID NO:31) and corresponds to the AS-βCOM antisense sequence complementary to conserved sequence region found in every mRNA encoding β subunit of Ca^2+ channels. After 5 min incubation at 37° C., more than 90% of the cells (cardiac cell line H9C2) were labeled in the nucleus while only 25% of the cells were labeled after 3 hours incubation when using the free ODN.

[1] = system: β subunit of Ca^2+ channels; test: Ba2+ current density of treated H9C2 cells; format: cell-based; conditions: all labeled cells
Description: as §1

[2] = system: HS-68, NIH 3T3, C2C12, COS-7 and CEM-SS cell lines; test: Cytotoxicity of MPG and MPG/DNA complex, MTT colorimetric assay; format: cell-based
Description: In order to generalize the use of MPG as an efficient delivery agent, the degree of cytotoxicity of MPG and of the MPG/DNA complex (charge ratio 5:1) were evaluated in several cell lines, including HS-68 and NIH 3T3 fibroblasts, C212 myoblasts, COS-7 kidney cells and human CEM-SS lymphoblasts. […] At much higher concentrations of 0.1 and 1 mM MPG, however, cell viability decreased by ˜25 and 60%, respectively.
The cytotoxicity of both MPG and MPG/plasmid (pRL-SV40 plasmid encoding reporter R.reniformis luciferase) complexes were investigated in the cell lines mentioned above. Cells grown in 35 mm diameter dishes to 75% confluency (0.5-1×10^6 cells per dish) were incubated with 0.1 μM to 1 mM MPG alone or complexed with DNA in a 5:1 ratio, in 1 ml DMEM for 3 h, after which 10% serum was added. Cell culture medium with MPG or MPG/plasmid was not changed, and cell proliferation was measured over 4 days. Cytotoxicity was evaluated by the MTT colorimetric assay, after removing cell culture medium and replacing it with PBS containing 5 mg/ml of MTT (Mosmann, T. (1983) J. Immunol. Methods, 65: 55-63). Results shown correspond to the averages of four separate experiments.
HS-68, NIH 3T3, C2C12, cos-7 and CEM-SS cell lines were incubated with 0.1 μM to 1 mM MPG alone (A) and with MPG complexed with DNA (pRL-SV40 plasmid encoding R.reniformis luciferase) in a peptide/DNA ratio of 5:1 (B), at 37° C. in DMEM supplemented with 10% FCS. The cytotoxicity of MPG alone and of MPG/DNA complexes was evaluated in MTT colorimetric assays and the results were expressed as percentages of dye reduction in cell lines incubated without MPG. The results correspond to averages of four separate experiments.

[3] = physiological conditions; cited from earlier work
[4] = system: HS68, NIH 3T3 and 293 cell lines; test: Toxicity of Pep-2 in cell lines (MTT staining); conditions: concentration of 1 mM
[5] = system: mammalian fibroblasts, NIH 3T3 fibroblasts or murine L1210 lymphocytes; test: Cellular localization of lucifer yellow-linked peptides; format: cell-based; conditions: 3 min incubation at 10 μM
[6] = Transmembrane ionic channel formation; design: species or system Xenopus laevis; conditions: voltage-triggered insertion
Excerpt: They were characterized on Xenopus laevis oocyte plasma membranes and confirmed on planar lipid bilayers proving thus that channel formation is a true property of the peptide (FIG. 11). The insertion of the peptide in the membrane is voltage-triggered and the channel thus formed are selective for monovalent cations.

[7] = system: Acheloplasma laidlawii and Spiroplasma melliferum; conditions: concentrations much lower than minimal inhibitory concentrations; cited from earlier work
[8] = phosphatidylcholine or phosphatidylserine monolayers; cited from earlier work

In the case of “5′-ACCAGCCTTCCGATCCACCAGTCATT-3′ (DNA, backbone not given here; 3' fluorescein conjugate, 5' thiol group, peptide conjugated) [second ODN]”, the “cells labeled in the nucleus” value (cardiac cell line H9C2; ODN conjugated to peptide, 5 min incubation at 37° C.) is reported as “more than 90%”, the cells labeled (cardiac cell line H9C2; free ODN, 3 hours incubation) is reported as 25% and the “reduction of Ba^2+ current density” value [1] is reported as “≈ 7 fold”.

In the case of `CSCC[C@H](NC(=O)[C@@H](NC(=O)[C@H](CO)NC(=O)CNC(=O)[C@H](C)NC(=O)[C@H](C)NC(=O)CNC(=O)[C@H](CC(C)C)NC(=O)[C@H](Cc1ccccc1)NC(=O)CNC(=O)[C@H](CC(C)C)NC(=O)[C@H](Cc1ccccc1)NC(=O)[C@H](CC(C)C)NC(=O)[C@H](C)NC(=O)CNC(C)=O)[C@@H](C)O)C(=O)NCC(=O)N[C@@H](C)C(=O)N[C@@H](Cc1c[nH]c2ccccc12)C(=O)N[C@@H](CO)C(=O)N[C@@H](CCC(N)=O)C(=O)N1CCC[C@H]1C(=O)N[C@@H](CCCCN)C(=O)N[C@@H](CO)C(=O)N[C@@H](CCCCN)C(=O)N[C@@H](CCCNC(=N)N)C(=O)N[C@@H](CCCCN)C(=O)N[C@H](C(=O)NCCS)C(C)C` [MPG] (Ac-GALFLGFLGAAGSTMGAWSQPKSKRKV-Cysteamide), the “decrease of cell viability” value ([2]; MPG alone 0.1 mM) is reported as about 25%, the “decrease of cell viability” value ([2]; MPG alone 1 mM) is reported as about 60% and the cytotoxic effects ([2]; MPG alone up to 10 μM, 48 h at 37° C.) is reported as “did not induce any cytotoxic effects”. For the same molecule, the cytotoxicity ([2]; MPG complexed with pRL-SV40 at 5:1 ratio, 0.1 mM MPG) was “no cytotoxicity could be observed”, the “decrease of cell viability” value ([2]; MPG complexed with pRL-SV40 at 5:1 ratio, 1 mM MPG) was about 40% and the solubility [3] was “highly soluble”.

For `CC(=O)N[C@@H](Cc1ccc(O)cc1)C(=O)NCC(=O)N[C@@H](Cc1ccccc1)C(=O)N[C@@H](CCCCN)C(=O)N[C@@H](CCCCN)C(=O)N[C@@H](CCCNC(=N)N)C(=O)N[C@@H](CCCNC(=N)N)C(=O)N[C@@H](Cc1c[nH]c2ccccc12)C(=O)N[C@@H](CO)C(=O)N[C@@H](CCC(N)=O)C(=O)N1CCC[C@H]1C(=O)N[C@@H](CCCCN)C(=O)N[C@@H](CCC(=O)O)C(=O)N[C@H](C(=O)N[C@@H](Cc1c[nH]c2ccccc12)C(=O)N[C@@H](CCC(=O)O)C(=O)N[C@H](C(=O)N[C@@H](Cc1c[nH]c2ccccc12)C(=O)N[C@@H](Cc1c[nH]c2ccccc12)C(=O)N[C@H](C(=O)N[C@@H](CCC(=O)O)C(=O)NCCS)[C@@H](C)O)[C@@H](C)O)[C@@H](C)O` [Pep-1-cya] (Ac-YGFKKRRWSQPKETWETWWTE-Cysteamide), the “decrease of cell viability” value [4] was “about 10%”.

In the case of “MGLGLHLLVLAAALQGAKKKRKV (Ac-MGLGLHLLVLAAALQGAKKKRKV; not fully specified (C-terminus); printed as MGLGLHLLVLAAALQGAKKKRKV) [[2]]”, the “final localization of lucifer yellow-linked peptide” value [5] is given as “localize in the nuclei of the cells”, the channel formation [6] is given as “induce formation of transmembrane ionic channels” and the “effect on membrane potential and transmembrane pH gradient” value [7] is given as “decrease”. The surface pressure increase [8] was about 15 mN/m.
